# Test results as given in patent publication US20010007657A1, “Compositions and methods for manipulating glial progenitor cells and treating neurological deficits” (priority 1997, published 2001).
# “Also recorded” adds a separate entry of the source.
# Legend:
# EGF receptor mRNA = experiment: In situ hybridization of EGF receptor mRNA after nigral 6-OHDA lesion and/or striatal TGFα infusion; type: in vivo, rat
# Text: (§1) Adult male Sprague-Dawley rats weighing 250-300 grams were obtained from Simonsen (Gilroy, Calif.) and assigned to one of five treatment groups: (1) striatal TGFα infusion, nigral 6-OHDA lesion (hereafter, “lesion”); (2) TGFα infusion, no lesion; (3) artificial cerebrospinal (aCSF) infusion, lesion; (4) aCSF infusion, no lesion; (5) no infusion, no lesion. Four to eight animals were used per experimental group. The animals were monitored after each surgical procedure until fully recovered and maintained at all other times in a temperature and humidity controlled vivarium.
# (§2) Rats were anesthetized with 8 mg xylazine and 100 mg ketamine per kilogram body weight. […] The success and extent of 6-OHDA lesions were monitored by tyrosine hydroxylase (TH) mRNA in situ hybridization in the midbrain. TH is the rate-limiting enzyme in the dopamine synthetic pathway and is a common marker for dopamine-producing neurons. One animal with an incomplete lesion (retaining significant numbers of nigral TH-IR cells) was excluded from the study and is not included in the total number of animals.
# (§3) Osmotic minipumps (model 2002, Alzet, Inc.) were implanted four to five weeks post-lesion. […] The minipump itself was placed subcutaneously in the interscapular region.
# (§4) At the end of the infusion period, animals were sacrificed by decapitation. Their brains were quickly removed, frozen in isopentane at −20° C., and stored at −70° C. Coronal cryostat sections were cut at 20 μm and thaw-adhered to Vectabond™ (Vector Labs, Inc.) coated slides in ordered anterior-to-posterior rows. The sections were postfixed with 4% paraformaldehyde in 0.1 M phosphate buffer (pH 7.4) for one hour, rinsed in phosphate buffer and air dried. Sections were stored with desiccant at −20° C. until processed.
# TGFα mRNA probes were generated from a 550 nucleotide XbaI/BamHI cDNA fragment from the 5′ end of rat TGFα subcloned into pGEM 7Zf (Promega, Inc.). Antisense and sense probes were transcribed with SP6 and T7 polymerases, respectively. Rat EGF receptor mRNA probes were produced from a 718 base pair BamHI/SphI insert from the 5′ end of the gene in pGEM 7Zf. Probes for rat TH were created using the 1.2 kb BamHI/EcoRI fragment subcloned into pGEM 7Zf. Antisense subclones for EGF receptor and TH were transcribed with T7 polymerase. Sense subclones for EGF receptor and TH were transcribed with SP6 polymerase. All probes were radiolabeled by transcription in the presence of [^35S]UTP (NEN Research Products, Inc.).
# In situ nucleic acid hybridization was performed according to the method described by Simmons et al. 1989, supra). Parallel sections from experimental and control animals were hybridized overnight at 65° C. with sense or antisense probes at a concentration of 10^7 cpm/ml.
# TGFα mRNA = experiment: In situ hybridization of TGFα mRNA after nigral 6-OHDA lesion and/or striatal TGFα infusion; type: in vivo, rat
# Text: as §1, §2, §3, §4
# TGFα mRNA probes were generated from a 550 nucleotide XbaI/BamHI cDNA fragment from the 5′ end of rat TGFα subcloned into pGEM 7Zf (Promega, Inc.). Antisense and sense probes were transcribed with SP6 and T7 polymerases, respectively. […]
# [1] = test system: neural precursor cells of the subependymal zone; experiment: Periventricular cellular expansion and striatal ridge formation (thionin, silver staining, immunohistochemistry); type: in vivo, rat; settings: for (incidence of striatal ridge) / Expansion (incidence of cellular expansion along ventricle): midstriatal infusion 0.5 μg/day
# Procedure: Adult male Sprague-Dawley rats weighing 250-300 grams were used throughout the study. Twenty-four animals received standard midstriatal infusions of rat TGFα (0.5 μg/day; Sigma Chemical Co.). Another 26 rats received either artificial cerebrospinal fluid (“aCSF”) or no infusion. A subset of animals in the standard TGFα infusion group and the control group received stereotaxic 6-OHDA injections into the substantia nigra 48 hours after the infusions were begun. Animals used in this portion of the study were classified into six groups according to their infusion-lesion combination, as follows: TGFα infusion, lesion (n=13); TGFα infusion, no lesion (n=11); aCSF infusion, lesion (n=12); aCSF infusion, no lesion (n=9); no infusion, lesion (n=1); no infusion, no lesion (n=4).
# Additional animals received TGFα infusions into other regions of striatum, the lateral ventricle, cerebral cortex, or the septum. Four more animals (two per group) received midstriatal TGFα infusions at one-half or one-tenth the standard dose. Also, two animals received midstriatal infusions of epidermal growth factor (EGF) instead of TGFα. The EGF administered in these rats was at the standard 0.5 μg/day dose. All of the animals in these extra groups were lesioned. Rats in all of the experiments were typically perfused one to 16 days postlesion (3-18 days of infusion). […] Brain sections were prepared and stained using various immunocytochemical and histochemical techniques.
# Rats were anesthetized with 8 mg xylazine and 100 mg ketamine/kg. Infusions of TGFα were provided up to 18 days by Alzet osmotic minipump (2002). The minipumps were filled to about 200 μl with either aCSF for control animals or 20 μg TGFα in 400 μl of aCSF (50 μg/ml) for experimental animals. Under sterile conditions, the infusion cannula was positioned to stereotaxic coordinates (+1.2 A/P; +2.7 M/L; −6.0 D/V) based on Bregma (Paxinos and Watson, The Rat Brain in Stereotaxic Coordinates, Academic Press, San Diego, 1986) and cemented to the top of the skull with dental cement. The infusate was delivered via cannula at approximately 0.5 μl/hour. Some additional control animals received infusions either into the lateral ventricle, the overlying cortex, or other areas.
# Forty-eight hours after the minipump implant, rats were anesthetized as above. A chilled 4.8 mg/ml solution of 6-OHDA HCl was prepared immediately prior to injection. […] A 6-8 μl volume was injected at a rate of 1 μl/minute.
# Animals were perfused with 500 ml of 4% paraformaldehyde in 0.1 M phosphate buffered saline (PBS; pH 7.4) one to 16 days postlesion and their brains placed into 20% sucrose. The next day, the brains were frozen in isopentane at −20° C. Forty-micron coronal sections were then cut on a freezing microtome into 2% paraformaldehyde in 0.1 M PBS. Continuous sections were taken through the striatum and substantia nigra-VTA. Representative sections were taken through the rest of the brain.
# Microtomed brain sections for Nissl staining were mounted onto gelatin-coated slides and allowed to dry overnight. They were then dehydrated and rehydrated through ethanol baths, and placed in Thionin solution for approximately four minutes. The sections were dehydrated through the series of ethanol baths, cleared in successive Histoclear™ washes, and coverslipped. Section were viewed under light microscopy and photographed with Technical Pan Film™ (Kodak, Inc.) at ISO 100 (HC-110 processing for six minutes).
# Degenerating fibers and cells of the ridge were labeled using a modification to the Nauta staining method, similar to Procedure I of Fink-Heimer (Giolli and Karamanlidis, In: Neuroanatomical Research Techniques, R. T. Robertson, Ed., pp. 211-240, Academic Press, New York, 1978).
# [2] = test system: stem and neuroprogenitor cells in the SVZ; experiment: Morphological studies of proliferation, directed migration and differentiation induction (Example 3); type: in vivo, rat
# Text: In situ hybridization histochemistry: TGFα mRNA probes were generated from a 550 nucleotide XbaI/BamHI cDNA fragment from the 5′ end of rat TGFα, subcloned into pGEM 7Zf (Promega, Inc). Antisense and sense probes were transcribed with SP6 and T7 polymerases, respectively. Rat EGF receptor mRNA probes were produced from a 718 base pair BamHI/SphI insert from the 5′ end of the gene in pGEM 7Zf. Probes for rat TH were created using the […] BamHI/EcoRI fragment subcloned into pGEM 7Zf. Antisense subclones for EGF receptor and TH were transcribed with T7 polymerase. Sense subclones for EGF receptor and TH were transcribed with SP6 polymerase. All probes were radiolabeled by transcription in the presence of [35S]UTP (NEN Research, Inc). In situ nucleic acid hybridization was performed according to Simmons (1989) J. Histochem. 12:169-181). Parallel sections from experimental and control animals were hybridized overnight at 65° C. with sense or antisense probes at a concentration of […]. Adjacent sections from the same animals were hybridized to each of the probes so that direct comparison could be made of their anatomical distributions. […] After successful development of the autoradiography film, analysis and quantitation was done using MCID (Imaging Research, Inc).
# [3] = test system: stem and neuroprogenitor cells in the SVZ; experiment: as above; type: in vivo, rat; remark: listed apart in the source
# [4] = test system: neural precursor cells of the subependymal zone; experiment: Periventricular cellular expansion and striatal ridge formation (thionin, silver staining, immunohistochemistry); type: in vivo, rat; settings: three months after the TGFα infusion pump was removed
# [5] = midstriatal EGF infusion 0.5 μg/day, lesioned animals
# [6] = intracerebroventricular (ICV) infusion ipsilateral to lesion, two weeks
# [7] = lower doses of TGFα (one-half or one-tenth the standard dose), lesioned
# [8] = infusion into the lateral ventricle, 6-OHDA-lesioned
molecule,measurement,setting,value
"Cl.NCCc1cc(O)c(O)cc1O [6-OHDA, 6-hydroxydopamine HCl, reference compound]",EGF receptor hybridization in the ipsilateral SN-VTA,"EGF receptor mRNA; 6-OHDA lesion, midbrain",abolished
same,striatal and subependymal EGF receptor hybridization,EGF receptor mRNA; 6-OHDA lesioned animals compared to normal animals,unchanged
same,contralateral TGFα mRNA hybridization,TGFα mRNA; unilateral nigral 6-OHDA lesion,no effect
same,reduction of TGFα mRNA hybridization in the ipsilateral striatum,"TGFα mRNA; unilateral nigral 6-OHDA lesion, several weeks post-lesion",25%
"EGF: epidermal growth factor, infused midstriatally instead of TGFα at 0.5 μg/day (NSDSECPLSHDGYCLHDGVCMYIEALDKYACNCVVGYIGERCQYRDLKWWELR; Epidermal growth factor; UniProt P01133 971-1023, looked up)",cellular expansion along the ventricle,[1]; [5],induced the cellular expansion along the ventricle
same,formation of the striatal ridge,[1]; [5],did not induce formation of the striatal ridge
"TGFα: transforming growth factor alpha polypeptide, EGF-family growth factor that binds the EGF receptor; infused into rat brain",expression of EGFr mRNA in the SVZ,[2]; 6-OHDA lesion and TGF alpha infusion,significant increase
same,expression of EGFr mRNA in the SVZ,"[2]; TGF alpha infusion, no 6-OHDA lesion",significant increase
same,"difference in distance between lateral extents of the ridges and the ventricle wall, 12 vs 16 days of infusion","[1]; 6-OHDA lesion, midstriatal TGFα",approximately 1.6 mm
same,distance of ventral portion of the ridge from the ventricle wall,"[1]; 12 days infusion, 6-OHDA lesion, midstriatal TGFα",≤ 400 μm
same,distance of ventral portion of the ridge from the ventricle,"[1]; 16 days infusion, 6-OHDA lesion, midstriatal TGFα",up to two mm
same,nestin immunostaining of the ridge,"[1]; TGFα infusion fourteen days, lesioned",intensely stained
same,GFAP immunostaining of striatal ridge and cellular expansion,"[1]; TGFα-induced ridge, two weeks of infusion",failed to stain
same,expansion of cells along the ipsilateral ventricle,"[1]; cortical infusions slightly penetrating the corpus callosum, two weeks, lesioned",stimulated expansion of cells
same,cell density along the lateral ventricle,"[1]; dorsal cortical infusions not penetrating the corpus callosum, two weeks, lesioned",no discernable effect
same,buildup of cells in the adjacent ventricular wall,[1]; [6],stimulated the buildup of cells
same,formation of the striatal ridge,[1]; [6],did not induce formation of the striatal ridge
same,buildup of cells along the ventricle ipsilateral to the infusion (thionin),[1]; intrastriatal TGFα infusions of six days or more,dramatic buildup of cells
same,cellular expansion and ridge formation,[1]; [7],induced both the cellular expansion and ridge formation
same,number of cells in expansion and ridge (qualitative),[1]; [7],decreased
same,(incidence of striatal ridge),"[1]; 6-OHDA lesion, n=13",92%
same,Expansion (incidence of cellular expansion along ventricle),"[1]; 6-OHDA lesion, n=13",100%
same,(incidence of striatal ridge),"[1]; no lesion, n=11",27%
same,Expansion (incidence of cellular expansion along ventricle),"[1]; no lesion, n=11",100%
same,formation of septal ridges,"[1]; septal and some striatal infusions, two weeks, lesioned",stimulated the formation of septal ridges
same,effectiveness in inducing ridge formation,[3]; 10 ug dose,minimally less effective
same,thickening of the SVZ,"[3]; 4 to 6 days of continuous infusion, lesioned animals",pronounced thickening of the SVZ
same,effectiveness in inducing ridge formation,[3]; 50 and 100 ug dose,equally effective
same,5′BrdU incorporation into the SVZ,[3]; first three days of infusion,massively increased incorporation
same,nestin staining of SVZ and ridge cells,[3]; from the fourth day of infusion,nestin-positive
same,SVZ proliferation,[3]; [8],temporary proliferation of SVZ cells
same,migratory ridge,[3]; [8],no migratory ridge
same,SVZ proliferation,[3]; infusion into the septum,massive proliferation of the SVZ
same,β-III tubulin (neuronal lineage) staining,[3]; starting at 14 days of infusion,β-III tubulin positive cells were seen
same,tyrosine hydroxylase (TH) positive cells in the striatum,"[3]; third and fourth week of infusion, 6-OHDA-lesioned",increasing numbers of TH positive cells
same,rats with ridge of dense EGF receptor mRNA hybridization in ipsilateral striatum,EGF receptor mRNA; TGFα infusion/nonlesion group,one of six
same,rats with ridge of dense EGF receptor mRNA hybridization in ipsilateral striatum,EGF receptor mRNA; combined TGFα infusion/6-OHDA lesion group,five of the six
same,EGF receptor mRNA hybridization in the ipsilateral subependymal region,"EGF receptor mRNA; striatal TGFα infusion two weeks, lesioned and unlesioned",dramatically increased; also recorded: approximately doubled
same,apomorphine-induced rotations,6OHDA lesioned animals; animals receiving the TGFα infusions,significant reduction
same,"improvement in rotational behavior, TGFα versus aCSF-treated control animals","6OHDA lesioned animals; infusion 14 days after 6-OHDA lesion, 14-day striatal infusion, p<0.05",38%
same,animals not exhibiting rotational behavioral asymmetry following apomorphine,"6OHDA lesioned animals; infusion contemporaneous with 6-OHDA lesion, entire four-week period",10 of the 11
same,"other motor behaviors (exploratory, consummatory behavior)","6OHDA lesioned animals; rat, in vivo",did not appear to be adversely affected
same,persistence of the ridge in the striatum,[4],still prominent
same,TGFα mRNA hybridization in the infused striatum,"TGFα mRNA; unlesioned animals, striatal TGFα infusion two weeks, vs contralateral or normal striata",unchanged
